Experimental data from ChEMBL document CHEMBL1201862, “PubChem BioAssay data set” (2004).
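The compound was tested at five concentrations on cells cultured in 96-well plates, with a 48-hour exposure period. GI50 marks 50% less growth.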 The source made the active and inactive calls. No stated cut-off is given here; in the data, active = GI50 up to about 1.1 µM and inactive = higher.

Legend:
Test in all cases: inhibition of tumour cell growth, NCI panel, 48 h
HOP-92 = tested on: HOP-92
SK-OV-3 = tested on: SK-OV-3
SK-MEL-2 = tested on: SK-MEL-2
OVCAR-8 = tested on: OVCAR-8
NCI/ADR-RES = tested on: NCI/ADR-RES
OVCAR-3 = tested on: OVCAR-3
NCI-H460 = tested on: NCI-H460
HCT-15 = tested on: HCT-15
BT-549 = tested on: BT-549
HL-60 = tested on: HL-60
EKVX = tested on: EKVX
UACC-62 = tested on: UACC-62
UO-31 = tested on: UO-31
SF-295 = tested on: SF-295
OVCAR-4 = tested on: OVCAR-4
Hs-578T = tested on: Hs-578T
U-251 = tested on: U-251
CAKI-1 = tested on: CAKI-1
A498 = tested on: A498
SF-268 = tested on: SF-268
SR = tested on: SR
HCT-116 = tested on: HCT-116
CCRF-CEM = tested on: CCRF-CEM
HT-29 = tested on: HT-29
MOLT-4 = tested on: MOLT-4
OVCAR-5 = tested on: OVCAR-5
MDA-MB-435 = tested on: MDA-MB-435
SF-539 = tested on: SF-539
PC-3 = tested on: PC-3
SN12C = tested on: SN12C
RXF 393 = tested on: RXF 393
MDA-MB-231 = tested on: MDA-MB-231
NCI-H522 = tested on: NCI-H522
NCI-H226 = tested on: NCI-H226
COLO 205 = tested on: COLO 205
MDA-N = tested on: MDA-N
786-0 = tested on: 786-0
SW-620 = tested on: SW-620
DU-145 = tested on: DU-145
ACHN = tested on: ACHN
KM12 = tested on: KM12
UACC-257 = tested on: UACC-257
SK-MEL-5 = tested on: SK-MEL-5
Malme-3M = tested on: Malme-3M
M14 = tested on: M14
HCC 2998 = tested on: HCC 2998
NCI-H23 = tested on: NCI-H23
RPMI-8226 = tested on: RPMI-8226
SK-MEL-28 = tested on: SK-MEL-28
K562 = tested on: K562
A549 = tested on: A549
LOX IMVI = tested on: LOX IMVI
TK-10 = tested on: TK-10
MCF7 = tested on: MCF7
IGROV-1 = tested on: IGROV-1
SNB-19 = tested on: SNB-19
T47D = tested on: T47D
HOP-62 = tested on: HOP-62
SNB-75 = tested on: SNB-75

Measured: GI50

COc1ccc(NC(=S)N/N=C(\c2ccccc2)c2ccccn2)cc1
< 0.01 µM: HCT-15
active: HOP-92 0.224 µM | SK-OV-3 0.028 µM | OVCAR-8 0.0218 µM | NCI/ADR-RES < 0.0904 µM | OVCAR-3 < 0.01 µM | NCI-H460 0.0931 µM | HL-60 < 0.01 µM | EKVX < 0.0543 µM | UACC-62 0.104 µM | UO-31 0.132 µM | SF-295 0.121 µM | OVCAR-4 0.7 µM | U-251 < 0.0198 µM | CAKI-1 0.034 µM | A498 0.587 µM | SF-268 0.123 µM | SR < 0.01 µM | HCT-116 < 0.01 µM | CCRF-CEM 0.01 µM | HT-29 < 0.0118 µM | MOLT-4 < 0.01 µM | OVCAR-5 0.0241 µM | SF-539 0.348 µM | PC-3 < 0.01 µM | SN12C 0.052 µM | RXF 393 0.603 µM | MDA-MB-231 < 0.01 µM | NCI-H522 0.0552 µM | NCI-H226 0.0753 µM | COLO 205 < 0.01 µM | MDA-N 0.263 µM | 786-0 < 0.0267 µM | SW-620 < 0.01 µM | DU-145 0.568 µM | ACHN < 0.027 µM | KM12 0.0479 µM | UACC-257 < 0.01 µM | SK-MEL-5 0.0432 µM | Malme-3M 0.172 µM | M14 0.0117 µM | NCI-H23 < 0.01 µM | RPMI-8226 < 0.01 µM | K562 < 0.01 µM | A549 0.128 µM | LOX IMVI < 0.0152 µM | TK-10 0.0244 µM | MCF7 < 0.01 µM | IGROV-1 < 0.01 µM | T47D < 0.0317 µM | HOP-62 0.06 µM
inactive: SK-MEL-2 2.5 µM | BT-549 4.94 µM | Hs-578T 10.3 µM | MDA-MB-435 1.96 µM | HCC 2998 2.42 µM | SK-MEL-28 2.56 µM | SNB-19 2.84 µM

C=C1CC(OC(C)=O)/C=C(/C)CCC(C(C)(C)O)CC1O (stereo not given)
> 100 µM: HCT-15
inactive: HOP-92 > 100 µM | SK-OV-3 > 100 µM | SK-MEL-2 > 100 µM | OVCAR-8 > 100 µM | NCI/ADR-RES > 100 µM | OVCAR-3 > 100 µM | NCI-H460 > 100 µM | BT-549 > 100 µM | HL-60 > 100 µM | EKVX > 100 µM | UACC-62 > 100 µM | UO-31 > 100 µM | SF-295 > 100 µM | OVCAR-4 > 100 µM | Hs-578T > 100 µM | U-251 > 100 µM | CAKI-1 > 100 µM | A498 > 100 µM | SF-268 > 100 µM | SR > 100 µM | HCT-116 > 100 µM | CCRF-CEM > 100 µM | HT-29 > 100 µM | MOLT-4 > 100 µM | OVCAR-5 > 100 µM | MDA-MB-435 > 100 µM | SF-539 > 100 µM | PC-3 > 100 µM | SN12C > 100 µM | RXF 393 > 100 µM | MDA-MB-231 > 100 µM | NCI-H522 > 100 µM | NCI-H226 > 100 µM | COLO 205 > 100 µM | MDA-N > 100 µM | 786-0 > 100 µM | SW-620 > 100 µM | DU-145 > 100 µM | ACHN > 100 µM | KM12 > 100 µM | UACC-257 > 100 µM | SK-MEL-5 > 100 µM | Malme-3M > 100 µM | M14 > 100 µM | HCC 2998 > 100 µM | NCI-H23 > 100 µM | SK-MEL-28 > 100 µM | A549 > 100 µM | LOX IMVI > 100 µM | TK-10 > 100 µM | MCF7 > 100 µM | IGROV-1 > 100 µM | SNB-19 > 100 µM | T47D > 100 µM | HOP-62 > 100 µM

COn1cc(C=O)c2ccccc21
active: HL-60 0.551 µM
> 70.5 µM: HCT-15
inactive: HOP-92 > 68.9 µM | SK-OV-3 67 µM | SK-MEL-2 > 91.8 µM | OVCAR-8 > 93.8 µM | NCI/ADR-RES > 70.8 µM | OVCAR-3 36.6 µM | NCI-H460 35.1 µM | BT-549 > 100 µM | EKVX 23.7 µM | UACC-62 41 µM | UO-31 61.2 µM | SF-295 44.1 µM | OVCAR-4 > 50.5 µM | Hs-578T 37.4 µM | U-251 55.6 µM | CAKI-1 28.7 µM | A498 1.95 µM | SF-268 68.4 µM | SR 26.4 µM | HCT-116 > 59 µM | HT-29 > 56.6 µM | MOLT-4 33.2 µM | OVCAR-5 > 74.6 µM | MDA-MB-435 10.8 µM | SF-539 > 45.6 µM | PC-3 > 74.1 µM | SN12C > 80.4 µM | RXF 393 45.9 µM | MDA-MB-231 > 100 µM | NCI-H522 38.6 µM | NCI-H226 > 20.2 µM | COLO 205 > 100 µM | MDA-N 23.6 µM | 786-0 > 67 µM | SW-620 26 µM | DU-145 > 82 µM | ACHN 32.7 µM | KM12 23.9 µM | SNB-75 33.7 µM | UACC-257 > 78.9 µM | SK-MEL-5 28.1 µM | Malme-3M > 93.8 µM | M14 > 61.8 µM | HCC 2998 21.8 µM | NCI-H23 > 100 µM | RPMI-8226 > 68.1 µM | SK-MEL-28 33.6 µM | K562 53.5 µM | A549 > 67 µM | LOX IMVI > 65.2 µM | TK-10 > 54.3 µM | MCF7 45.2 µM | IGROV-1 > 62.8 µM | SNB-19 69.7 µM | T47D 65.8 µM | HOP-62 81.3 µM

NCC(=O)Nc1ccc(S(=O)(=O)O)c2cc(S(=O)(=O)O)cc(S(=O)(=O)O)c12
> 100 µM: HCT-15
inactive: HOP-92 > 100 µM | SK-OV-3 > 100 µM | SK-MEL-2 > 100 µM | OVCAR-8 > 100 µM | NCI/ADR-RES > 100 µM | OVCAR-3 > 100 µM | BT-549 > 100 µM | HL-60 > 100 µM | EKVX > 100 µM | UACC-62 > 100 µM | UO-31 > 100 µM | SF-295 > 100 µM | OVCAR-4 > 100 µM | Hs-578T > 100 µM | U-251 > 100 µM | CAKI-1 > 100 µM | A498 > 100 µM | SF-268 > 100 µM | SR > 100 µM | HCT-116 > 100 µM | CCRF-CEM > 100 µM | HT-29 > 100 µM | MOLT-4 > 100 µM | OVCAR-5 > 100 µM | MDA-MB-435 > 100 µM | SF-539 > 100 µM | PC-3 > 100 µM | SN12C > 100 µM | RXF 393 > 100 µM | MDA-MB-231 > 100 µM | NCI-H522 > 100 µM | NCI-H226 > 100 µM | COLO 205 > 100 µM | MDA-N > 100 µM | 786-0 > 100 µM | SW-620 > 100 µM | DU-145 > 100 µM | ACHN > 100 µM | KM12 > 100 µM | SNB-75 > 100 µM | UACC-257 > 100 µM | SK-MEL-5 > 100 µM | Malme-3M > 100 µM | M14 > 100 µM | HCC 2998 > 100 µM | NCI-H23 > 100 µM | RPMI-8226 > 100 µM | SK-MEL-28 > 100 µM | K562 > 100 µM | A549 > 100 µM | LOX IMVI > 100 µM | TK-10 > 100 µM | MCF7 > 100 µM | IGROV-1 > 100 µM | SNB-19 > 100 µM | T47D > 100 µM | HOP-62 > 100 µM
